Measured values as given in patent US20250152601A1, “Compositions and Methods for the Treatment of Sexual Dysfunctions” (The Jonathan Hurt Living Trust, priority 2022, published 2025).
Where a name gives a salt, the structure may show the parent alone. Read-outs that look alike come from different tables or passages of the source.

Experiments:
[1] = tested on: tactile sexual function (TSF); experiment: Self-measured tactile sexual function (TSF) scores C, CT, A, B, BM, BS after ingesting treatment substance(s); settings: for effect on TSF, stated in words: inventor; for C, A and B scores when combined with Val and NAC: at 60 minutes; for TSF when both paroxetine and finasteride were ingested: during use of both drugs;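 on all read-outs here: Self-rated by the single male inventor (about 65 kg) after oral intake, capsules unless noted, on the TSF scale, each one-unit score rise means roughly double the sensation intensity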
From the text: Some treatment substances were in liquid form when orally ingested. For the Working Examples herein all treatment substances were in capsule form unless otherwise noted in the Tables herein. […] It is contemplated that the mg per kilogram dose of treatment substances and/or the time from ingesting one or more treatment substances may vary from person to person for optimum improvement in treating a sexual dysfunction (e.g., an SRSS including reduced TSF or absent TSF). In some instances, it is contemplated that ingesting one treatment substance may be done at a different time than ingesting another treatment substance to optimize the effect in treating a sexual dysfunction.
For a male, the A score is the highest intensity of TSF just before the first muscle contraction of ejaculation, and the B score is the highest intensity of TSF just after the first muscle contraction of ejaculation.

[2] = in vivo; cited from earlier work
[3] = biological target: mGlu5-R (Homo sapiens, UniProt P41594); settings: Glu released by Xc- after exchange for Cys2; cited from earlier work
[4] = tested on: mGlu(2/3)-R; settings: rats, striatum; cited from earlier work
[5] = tested on: tactile sexual function (TSF); experiment: C score at varying time points after ingestion (duration of effect; rise, peak, fall pattern or decline pattern); format: in vivo, human; settings: C scores at 20 to 60 minutes
From the text: Table 42 records the increases/decreases in C scores over time as a measure of the duration of the effect of ingesting a treatment substance on TSF, for some working examples listed in previous tables. These working examples measured TSF for C scores at varying time points after the first ingestion of a treatment substance and before the measurement of the B score. Negative time scores indicate that the C score measurement occurred prior to ingesting a treatment substance, such as at example T37:82 the […] time is listed as −20 as the measurement for the C score at the C1 time was made 20 minutes before ingesting the treatment substance. In some examples additional rows were used to record C scores (e.g., examples T37:82 and T40:1). The duration of the effect of treatment substance(s) on the C score varied, with some reaching a peak C score before the B score measurement (e.g., see example T37:43), and other still increasing in C score to the B score measurement (e.g., see example T41:8).
Early C score measurements, when available, are shown for 20, 30, 40, and/or 50 minutes. […] Individual combinations of Val and NAC and another treatment substance may vary from the average's rise, peak, fall pattern (e.g., T41:120). […]

[6] = in ester or salt form, cited from earlier work
[7] = tested on: ejaculation/orgasm; experiment: Ejaculation scores D (strength of the muscle contractions during ejaculation) and DE (ease to achieve ejaculation), incl. FE/FO; format: in vivo, human; settings: for effect on D/DE scores, stated in words: Examples with the positive cholinergic; for time after ingestion at which the increase in DE score may peak: before 60 minutes; for average D score / average DE score: when not combined with another listed positive cholinergic
Protocol: Variations in TSF and other sexual responses were noticed after ingesting a treatment substance, and additional scores to describe these responses were recorded in some examples. In some examples the C score for TSF was localized only to the head (“glands”) of the penis when one or more C score measurements were taken prior to attempted or achieved ejaculation/orgasm. […] In some examples after ingesting a treatment substance, the speed of B score decrease from the first muscle contraction to the last muscle contraction of ejaculation was recorded as the “BS” score using terms such as “IS” for instantaneous loss of TSF where a B score of 0.0 occurred at or immediately after the first muscle contraction, “FT” for a fast loss of TSF, and “SL” for a slow loss of TSF. In some examples the minimum B score measured at or near the last muscle contraction was recorded as the “BM” score using the same scoring parameters as for the B score. […] In some examples the ease to achieve ejaculation was recorded as the “DE” score, with a score of 1.0 being ejaculation achieved with some difficulty, 2.0 being a typical/normal ease of ejaculation, and a 3.0 being of the ease of ejaculation was promoted. […] When a score (e.g., C, CT, A, B, BM, BS, D, DE) was not recorded or not applicable then “N/A” is listed for that score and that score was not used (no numeric score) for mathematical evaluations in such an occurrence.
Dietary vitamins and nutritional supplements were ingested about 7:00 AM to about 10:30 AM with coffee, and coffee consumption ended by about 12:00 PM or earlier. No food was ingested during the day before measurements as only one meal a day is typically eaten in the evening.
Measurements were made in the morning from about 7:30 AM until about 11:30 AM.
Dietary vitamins and nutritional supplements were ingested about 7:00 AM to about 10:30 AM with coffee, and coffee consumption ended by about 12:00 PM or earlier.
No food, dietary vitamins or nutritional supplements were ingested the day of the measurements until after the measurements were taken.

[8] = Non-sexual side effects associated with ingesting treatment substances; settings: for non-sexual side effect / adverse event: after ingesting the treatment substance
[9] = tested on: sexual function; experiment: Additional sexual effects after ingesting treatment substances (C score different, urination sensitivity, ease to ejaculate); format: in vivo, human; settings: 3000 mg/day, after about a week
[10] = Table 47A, dose in mg per example: Phenibut 450, Homotaurine 50, 150, 200, 250
[11] = Table 47A, dose in mg per example: Phenibut 450, Homotaurine 50, 150, 200, 250, beverage and time as in Tables 37, 38, 39
[12] = Table 47A, dose in mg per example: Phenibut 450, Homotaurine 50, 150, 200, 250, listed as T38:18
[13] = prolonged daily ingestion (D-Asp 3000 mg/day about a week; bupropion per prescription, following months)
[14] = Table 47A, dose in mg per example: Phenibut 450, Homotaurine 50, 150, 200, 250, listed as T38:5
[15] = after the first day of ingesting bupropion
[16] = Table 39B, ingested at times other than 60 minutes before measurements, various beverages
[17] = Table 39C, ingested at times other than 60 minutes before measurements

mGlu5-R, sequence (P41594 21-1212): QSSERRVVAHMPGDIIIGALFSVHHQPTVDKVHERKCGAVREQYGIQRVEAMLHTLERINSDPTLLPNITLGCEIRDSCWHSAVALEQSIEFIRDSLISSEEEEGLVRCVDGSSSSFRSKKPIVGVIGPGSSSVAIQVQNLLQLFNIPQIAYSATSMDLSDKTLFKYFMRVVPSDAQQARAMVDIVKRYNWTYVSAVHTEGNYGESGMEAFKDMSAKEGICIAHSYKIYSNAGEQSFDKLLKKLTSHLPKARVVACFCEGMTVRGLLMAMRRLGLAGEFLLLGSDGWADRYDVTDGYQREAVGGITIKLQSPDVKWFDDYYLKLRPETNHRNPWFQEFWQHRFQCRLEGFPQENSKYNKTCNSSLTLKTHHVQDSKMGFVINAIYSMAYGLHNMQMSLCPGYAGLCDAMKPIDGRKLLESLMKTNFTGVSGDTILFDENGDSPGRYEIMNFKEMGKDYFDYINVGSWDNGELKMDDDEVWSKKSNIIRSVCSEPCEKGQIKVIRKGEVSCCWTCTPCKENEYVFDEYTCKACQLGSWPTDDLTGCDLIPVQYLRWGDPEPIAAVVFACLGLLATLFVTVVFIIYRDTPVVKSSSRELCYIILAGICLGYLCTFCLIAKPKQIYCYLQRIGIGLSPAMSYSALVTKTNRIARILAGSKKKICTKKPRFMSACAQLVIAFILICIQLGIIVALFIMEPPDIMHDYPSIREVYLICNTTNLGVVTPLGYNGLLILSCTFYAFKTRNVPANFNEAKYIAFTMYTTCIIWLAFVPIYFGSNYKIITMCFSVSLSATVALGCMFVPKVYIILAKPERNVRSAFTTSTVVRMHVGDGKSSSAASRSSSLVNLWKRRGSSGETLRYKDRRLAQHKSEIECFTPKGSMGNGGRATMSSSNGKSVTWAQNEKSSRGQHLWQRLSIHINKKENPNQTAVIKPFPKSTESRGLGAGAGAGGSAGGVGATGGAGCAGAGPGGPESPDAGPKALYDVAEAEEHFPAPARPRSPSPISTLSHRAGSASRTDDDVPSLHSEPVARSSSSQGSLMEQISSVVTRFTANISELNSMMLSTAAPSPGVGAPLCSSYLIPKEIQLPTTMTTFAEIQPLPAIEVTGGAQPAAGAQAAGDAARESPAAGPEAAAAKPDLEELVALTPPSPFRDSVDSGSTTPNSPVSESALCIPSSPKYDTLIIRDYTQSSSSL

Question: Which results are given for `NCCCS(=O)(=O)O` [T37:57, Homotaurine]?
Answer: A score [1, 10]: 9.2; B score [1, 10]: 9.2; C score [1, 11]: 1.2

Question: With `NCC(CC(=O)O)c1ccccc1` (centres unmarked) [phenibut, Phenibut HCl] as the compound, how does the “effect on TSF, stated in words” value [1] read?
Answer: weaker effect on improving A/B TSF scores

Question: Which average plasma half-life [2] does the source give for `Cn1c(=O)c2c(ncn2C)n(C)c1=O` [caffeine, Caffeine] here?
Answer: 5 h

Question: For `CC(C)[C@H](N)C(=O)O` [Val, Valine], which “effect on TSF, stated in words” value [1] is on record?
Answer: stronger improvement in TSF than either Leu or Ile

Question: Which results are given for `N[C@@H](CCC(=O)O)C(=O)O` [Glu, Glutamic Acid]?
Answer: Glu level at which the extrasynaptic mGlu5-R becomes activated [3]: 500 µM; Glu concentration that activated the mGlu(2/3)-R [4]: 0.5 µM

Question: With `COc1ccc([C@@H]2CC(=O)c3c(O)cc(O[C@@H]4O[C@H](CO[C@@H]5O[C@@H](C)[C@H](O)[C@@H](O)[C@H]5O)[C@@H](O)[C@H](O)[C@H]4O)cc3O2)cc1O` [hesperidin, Hesperidin] as the compound, how does the “C score pattern over time when combined with Val and NAC” value [5] read?
Answer: rise, peak, fall pattern of C scores and not a high C, A, and/or B scores

Question: For `NCCCC(=O)O` [GABA, gamma-aminobutyric acid], which “effect on TSF, stated in words” value [1] is on record?
Answer: mild improvement in TSF relative to Val

Question: With `C[C@@H](O)CC(=O)O` [D-Beta-Hydroxybutyrate] as the compound, how does the “blood ketone bodies such as D-Beta-Hydroxybutyrate” value ([6]; 12 grams) read?
Answer: 1.0 mM

Question: And the “blood ketone bodies such as D-Beta-Hydroxybutyrate” value ([6]; 24 grams)?
Answer: 2.8 mM

Question: Which results are given for `COc1ccc2c3c1O[C@H]1C[C@@H](O)C=C[C@@]31CCN(C)C2` [Galantamine HBr, Galantamine Hydrobromide, reference compound]?
Answer: effect on D/DE scores, stated in words [7]: generally had improved D/DE scores; time after ingestion at which the increase in DE score may peak [7]: about 40 minutes; average D score [7]: about 3.6; average DE score [7]: 2.4

Question: What does the source list for `NCCCS(=O)(=O)O` [Example T38: 18, Homotaurine]?
Answer: C score ([1]; Table 47A, dose in mg per example: Phenibut 450, Homotaurine 50, 150, 200, 250, beverage and time as in Tables 37, 38, 39, listed as T38:18): 1.0; A score [1, 12]: 9.2; B score [1, 12]: 9.2

Question: With `CCNC(=O)CC[C@H](N)C(=O)O` [theanine, Theanine] as the compound, how does the “number of Examples with failure to ejaculate” value ([7]; of 14 Examples having theanine as a treatment substance, 12 failures in all Examples) read?
Answer: 3

Question: Which “C, A and B scores when combined with Val and NAC” value [1] does the source give for `COc1ccc(-c2oc3c(CC=C(C)C)c(O[C@@H]4O[C@H](CO)[C@@H](O)[C@H](O)[C@H]4O)cc(O)c3c(=O)c2O[C@@H]2O[C@@H](C)[C@H](O)[C@@H](O)[C@H]2O)cc1` [icariin, Icariin] here?
Answer: C score below a preferred C score and A and B scores that matched the lowest A and B scores of Val and NAC alone

Question: What does the source list for `N[C@H](CC(=O)O)C(=O)O` [D-Asp, D-Aspartic Acid]?
Answer: non-sexual side effect / adverse event [8]: a small bump from a varicose vein developed on the penis; A score [1, 13]: 0; B score [1, 13]: 0; BM score [1, 13]: 0; C score [1, 13]: 0; D score [7, 13]: 3.0; DE score [7, 13]: 2.0; physical arousal (erections) [9]: extremely promoted

Question: With `O=C1c2c(O)cc(O)cc2O[C@H](c2cc(O)c(O)c(O)c2)[C@H]1O` [dihydromyricetin, Dihydromyricetin] as the compound, how does the “C score pattern over time when ingested alone” value [5] read?
Answer: decline pattern

Question: And the “C, A and B scores when combined with Val and NAC” value [1]?
Answer: C, A and B scores less than the lowest C, A and B scores of Val and NAC alone

Question: What about the “effect on TSF, stated in words” value [1] of the same compound?
Answer: reduced positive TSF scores

Question: With `NCCCS(=O)(=O)O` [T37:56, Homotaurine] as the compound, how does the A score [1, 10] read?
Answer: 7.5

Question: What about the B score [1, 10] of the same compound?
Answer: 7.5

Question: And the C score [1, 11]?
Answer: 1.2

Question: For `NCCCS(=O)(=O)O` [Example T38: 5, Homotaurine], which C score ([1]; Table 47A, dose in mg per example: Phenibut 450, Homotaurine 50, 150, 200, 250, beverage and time as in Tables 37, 38, 39, listed as T38:5) is on record?
Answer: 1.8

Question: What about the A score [1, 14] of the same compound?
Answer: 9.5

Question: And the B score [1, 14]?
Answer: 9.5

Question: Which results are given for `CC(C)(C)NC(=O)[C@H]1CC[C@H]2[C@@H]3CC[C@H]4NC(=O)C=C[C@]4(C)[C@H]3CC[C@]12C` [Finasteride, reference compound]?
Answer: TSF when both paroxetine and finasteride were ingested ([1]; oral, per prescription): complete lack of TSF; effect on TSF while ingesting the drug ([1]; oral, per prescription, inventor before SRSS): moderately reduced TSF

Question: Which “non-sexual side effect / adverse event” value [8] does the source give for `CC(NC(C)(C)C)C(=O)c1cccc(Cl)c1` (centres unmarked) [Bupropion, reference compound] here?
Answer: feeling odd/under the influence of a drug

Question: And the A score [1, 15]?
Answer: about 4

Question: What about the B score [1, 15] of the same compound?
Answer: about 4

Question: And the C score [1, 15]?
Answer: less than 1

Question: And the A score [1, 13]?
Answer: 0

Question: And the B score [1, 13]?
Answer: 0

Question: What about the BM score [1, 13] of the same compound?
Answer: 0

Question: What about the C score [1, 13] of the same compound?
Answer: 0

Question: What about the D score [7, 15] of the same compound?
Answer: 3.0

Question: What about the DE score [7, 15] of the same compound?
Answer: 2.0

Question: And the D score [7, 13]?
Answer: 3.0

Question: And the DE score [7, 13]?
Answer: 2.0

Question: With `C/C=C1\[C@H]2C=C(C)C[C@]1(N)c1ccc(=O)[nH]c1C2` [Huperzine A] as the compound, how does the “effect on D/DE scores, stated in words” value [7] read?
Answer: also had Examples of improved D/DE scores

Question: What about the “time after ingestion at which the increase in DE score may peak” value [7] of the same compound?
Answer: about 40 minutes

Question: And the “average D score” value [7]?
Answer: 3

Question: What about the “average DE score” value [7] of the same compound?
Answer: 1.9

Question: Which “effect on TSF, stated in words” value [1] does the source give for `CC(=O)N[C@@H](CS)C(=O)O` [NAC, N-Acetyl-Cysteine, reference compound] here?
Answer: no positive effect was noticed on TSF

Question: For `NCC(CC(=O)O)c1ccccc1` (centres unmarked) [T39:13, Phenibut HCl], which “Side Effect” value ([8]; non-sexual side effect after ingesting treatment substance(s)) is on record?
Answer: Felt not normal

Question: And the “Time of Side Effect” value ([8]; time after ingesting treatment substance(s), sometimes approximated)?
Answer: 20 to 120 min

Question: And the A score [1, 16]?
Answer: 6.5

Question: What about the B score [1, 16] of the same compound?
Answer: 6.5

Question: What about the C score [1, 16] of the same compound?
Answer: 1.5

Question: What about the A score [1, 17] of the same compound?
Answer: 6.5

Question: And the B score [1, 17]?
Answer: 6.5

Question: And the C score [1, 17]?
Answer: 1.5

Question: What about the A score [1, 10] of the same compound?
Answer: 6.5

Question: What about the B score [1, 10] of the same compound?
Answer: 6.5

Question: And the C score [1, 11]?
Answer: 1.5

Question: And the “D score (strength of the muscle contractions during ejaculation)” value [7, 17]?
Answer: 4.0

Question: And the “DE score (ease to achieve ejaculation)” value [7, 17]?
Answer: 2.0

Question: Which “effect on TSF, stated in words” value [1] does the source give for `CC(=O)N[C@@H](CCC(N)=O)C(=O)O` [AcetylGln, N-Acetyl L-Glutamine] here?
Answer: relatively weak effect

Question: With `Fc1ccc([C@@H]2CCNC[C@H]2COc2ccc3c(c2)OCO3)cc1` [paroxetine, reference compound] as the compound, how does the “TSF after discontinuing paroxetine use” value ([1]; finasteride continued) read?
Answer: absence of TSF continued much to most of the time

Question: What about the “TSF when both paroxetine and finasteride were ingested” value ([1]; oral, per prescription) of the same compound?
Answer: complete lack of TSF

Question: With `CN[C@H](CC(=O)O)C(=O)O` [NMDA, N-Methyl-D-Aspartic Acid, reference compound] as the compound, how does the “effect on TSF, stated in words” value [1] read?
Answer: negative effect on TSF scores
